Data reported in patent US20040220268A1, “Compound that directly stimulates phospholipase C activity” (priority 2003, published 2004).

Columns and labels:
[1] = test system: human neutrophils; experiment: [Ca2+]i measurement with fura-2 in neutrophils; format: cell-based; conditions: for effect on calcium signal induced by m-3M3FBS: pretreatment with 4 μM, m-3M3FBS 25 μM
Description: Fura-2-loaded neutrophils were stimulated with m-3M3FBS or o-3M3FBS at 25 μM in extracellular calcium containing 2 mM or extracellular free calcium conditions. The results shown are representative of three independent experiments (A). Prepared neutrophils were loaded with fura-2 and then stimulated with 25 μM of m-3M3FBS in the absence or in the presence of 4 μM of U-73122 or U-73343 (B). Changes in 340 nm/380 nm excitation ratio were monitored, and converted to [Ca^2+]i levels. Data are presented as means ±S. E. M. of three independent experiments.
(§1) Freshly prepared human neutrophils were incubated in serum free RPMI 1640 medium with 3 μM of fura-2/AM at 37° C. for 30 min with continuous stirring. After washing with serum free RPMI 1640 medium, the cells were suspended in serum free RPMI containing 250 μM of sulfinpyrazone to prevent dye leakage. About 2×10^6 cells were suspended in Ca^2+ free Locke's solution (158.4 mM NaCl, 5.6 mM KCl, 1.2 mM MgCl2, 5 mM HEPES pH 7.3, 10 mM glucose, and 0.2 mM EGTA) for each measurement. Changes in the fluorescence ratio were measured at an emission wavelength of 500 nm for dual excitation wavelengths at 340 nm and 380 nm. The calibration of the fluorescence ratio versus [Ca^2+]i was performed as described by Grynkiewicz (Grynkiewicz et al., 1985).

[2] = test system: PTX-sensitive Gi-proteins; experiment: PTX sensitivity of [Ca2+]i increase in neutrophils; format: cell-based, human; conditions: fMLF 1 μM
Description: (§2) Isolated neutrophils were preincubated with PTX (1 μg/ml) or vehicle for 90 min at 37° C. and stimulated with m-3M3FBS, FMLF, or ATP at concentrations of 25, 1, and 500 μM, respectively. Changes in the excitation ratios at 340 nm/380 nm were monitored. Data are presented as means ±S. E. M. of two independent experiments (A). cAMP levels were determined by a radio receptor assay. Prepared cells were treated with m-3M3FBS (25 μM) or histamine (100 μM) and then lysed with Tris-EDTA. After removing the supernatant, [ 3H] cAMP and protein were added, and the amount of [^3H] cAMP-protein complex was determined. The amount of unlabeled cAMP (in the sample) was then calculated by measuring the protein-bound radioactivity. Data are presented as means ±S. E. M. of two independent experiments (B). RGS2-GFP inducible HeLa cells were cultured for 48 h in the absence or in the presence of tetracycline, and the induction of RGS2-GFP was confirmed by Western blot analysis using anti-GFP antibody (C). RGS2-GFP inducible HeLa cells were cultured for 48 h in the absence or in the presence of tetracycline and loaded with fura-2. Cells were treated with histamine (100 μM) or m-3M3FBS (25 μM), and changes in the 340 nm/380 nm ratios were monitored and converted to [Ca^2+]i values. The results shown are representative of three independent experiments (C).
as §1

[3] = test system: Gs-proteins; experiment: Cyclic AMP generation (radio receptor assay); format: cell-based; conditions: human neutrophils; m-3M3FBS 25 μM, histamine 100 μM
Description: as §2, with “RGS2-GFP inducible HeLa cells were cultured for 48 h in the absence or in the presence of tetracycline, and the induction of RGS2-GFP was confirmed by Western blot analysis using anti-GFP antibody (C).” left out

[4] = test system: Gq-proteins; experiment: [Ca2+]i in RGS2-GFP inducible HeLa cells; format: cell-based, human; conditions: histamine 100 μM, m-3M3FBS 25 μM
Description: as §2, with “RGS2-GFP inducible HeLa cells were cultured for 48 h in the absence or in the presence of tetracycline, and the induction of RGS2-GFP was confirmed by Western blot analysis using anti-GFP antibody (C).” left out
pRevTRE vector containing the cDNA of rat RGS2-GFP was transfected into Hela Tet-off cells using Lipofectamine. Selection was performed in DMEM supplemented with 2 μg/ml of tetracycline and 500 μg/ml of hygromycin B. Two weeks later, several well-isolated colonies were picked out and analyzed by western blotting to determine the expression level of RGS2 in the absence of tetracycline. For these experiments, HeLa cells were cultured for 48 h in the absence or in the presence of tetracycline.
as §1

Q: For `COc1ccc2c(c1)CC[C@@H]1[C@@H]2CC[C@]2(C)[C@@H](NCCCCCCN3C(=O)C=CC3=O)CC[C@@H]12` [U-73122, reference compound], which “effect on m-3M3FBS-induced calcium signal” value ([1]; preincubation in the presence of extracellular calcium, data not shown) is on record?
A: completely blocked

Q: What about the “effect on calcium signal induced by m-3M3FBS” value [1] of the same compound?
A: complete inhibition

Q: What does the source list for fMLF?
A: effect of PTX preincubation on the induced calcium increase ([2]; PTX 1 μg/ml for 90 min, m-3M3FBS 25 μM): inhibited; [Ca2+]i increase ([2]; neutrophils, without PTX): induced [Ca^2+]i increase

Q: How did the “effect on calcium signal induced by m-3M3FBS” value [1] turn out when `COc1ccc2c(c1)CC[C@@H]1[C@@H]2CC[C@]2(C)[C@@H](NCCCCCCN3C(=O)CCC3=O)CC[C@@H]12` [U-73343, reference compound] was run?
A: no effect

Q: With `NCCc1c[nH]cn1` [histamine, reference compound] as the compound, how does the “intracellular cAMP level” value [3] read?
A: potently induce cAMP production

Q: And the “[Ca2+]i increase” value ([4]; HeLa cells in the presence of tetracycline (RGS2 not induced))?
A: caused [Ca^2+]i increases

Q: What about the “effect of RGS2 induction on the induced calcium response” value ([4]; HeLa cells overexpressing RGS2) of the same compound?
A: completely blocked
